Experiments:
NS3h_1b(con1) = molecular target: T1, NS3h_1b(con1) (Hepatitis C virus genotype 1b, UniProt Q9WMX2); test: ATP hydrolysis assay (malachite green); format: biochemical
T1 construct: truncated C-terminally His-tagged NS3 proteins lacking the N-terminal protease, called NS3h; His-tag (C); made in house
Procedure: A modified “malachite green” assay (Lanzetta, et al. (1979) Anal. Biochem. 100:95-97) was used to measure ATP hydrolysis. Fifty μL reactions contained 25 mM MOPS pH 6.5, 5 mM MgCl2, 2 mM ATP, 5 μg/mL BSA, 0.01% (v/v) TWEEN 20, 0.05 mM DTT, and poly(U) RNA (Saint Louis, Mo.) as indicated. Reactions were initiated by adding NS3h_1b(con1). Reactions were incubated for 15 minutes at 37° C. then stopped by mixing 40 μL of the reaction into 200 μL of the malachite green reagent (3 volumes 0.045% (w/v) malachite green, 1 volume 4.2% ammonium molybdate in 4N HCl, 0.05 volume of 20% TWEEN 20). […] Absorbance at 630 nm was proportional to the concentration of phosphate produced; free phosphate produced was measured against a standard curve.

scNS4A-NS3 = scNS4A-NS3 (Hepatitis C virus genotype 1b, UniProt Q9WMX2); test: NS3 protease assay (ENZOLYTE 520), full-length; format: biochemical, hepatitis C virus genotype 1b(con1); parameters: other: 100 μM, highest concentration tested; other: versus P4; There is also a His tag
Chain of scNS4A-NS3 (Q9WMX2 1027-1657): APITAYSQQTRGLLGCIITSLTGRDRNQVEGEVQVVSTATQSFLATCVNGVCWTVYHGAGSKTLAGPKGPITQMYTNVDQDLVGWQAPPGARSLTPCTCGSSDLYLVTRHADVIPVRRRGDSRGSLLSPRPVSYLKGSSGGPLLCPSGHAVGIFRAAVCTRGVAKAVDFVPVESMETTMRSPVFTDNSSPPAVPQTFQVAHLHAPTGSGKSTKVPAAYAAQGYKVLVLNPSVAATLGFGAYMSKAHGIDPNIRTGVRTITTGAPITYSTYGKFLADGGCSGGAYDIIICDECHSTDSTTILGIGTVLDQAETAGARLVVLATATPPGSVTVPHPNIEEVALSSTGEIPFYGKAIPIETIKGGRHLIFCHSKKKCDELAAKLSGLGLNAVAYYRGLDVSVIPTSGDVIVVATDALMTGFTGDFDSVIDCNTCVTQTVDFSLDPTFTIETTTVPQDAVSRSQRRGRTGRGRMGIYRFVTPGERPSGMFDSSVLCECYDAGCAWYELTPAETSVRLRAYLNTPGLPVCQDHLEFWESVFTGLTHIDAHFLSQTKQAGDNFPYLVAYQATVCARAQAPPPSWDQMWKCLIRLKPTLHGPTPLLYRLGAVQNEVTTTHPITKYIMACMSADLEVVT
Procedure: All oligonucleotides were purchased from Integrated DNA Technologies (IDT, Coralville, Iowa). Primuline derivatives were synthesized and purified as described herein. Three different NS3 proteins were used in this study. Two were truncated C-terminally His-tagged NS3 proteins lacking the N-terminal protease, called NS3h, the third was a full-length NS3 with the portion of NS4A needed for protease activation fused to its N-terminus, called scNS4A-NS3 (Howe, et al. (1999) Protein Sci. 8:1332-41), and the fourth was a 23 kDa scNS4A-NS3 protease fragment lacking the helicase domains, called scNS4A-NS3p (Protein One, Rockville, Md.). NS3h was expressed from two different HCV strains. NS3h_1b(con1) was from the con1 strain of genotype 1b (GENBANK accession AB114136), and NS3h_2a(JFH1) was from the JFH1 strain of HCV genotype 2a (GENBANK accession AJ238799). […] His-tagged recombinant NS3h_1b(con1), NS3h_2a(JFH1), and scNS4A-NS3 (also from genotype 1b(con1)) were expressed, and purified as previously described (Frick, et al. (2010) supra; Lam, et al. (2003) J. Virol. 77:3950-3961). […]
All NS3 protease assays were carried out using the 5-Carboxyfluorescein-labeled substrate from the AnaSpec. […] Assays were carried out in a total volume of 20 μl in black 384-well plates with fluorescence at 520 nm measured using a BMG FLUOstar Omega fluorescence spectrophotometer. […]

[1] = Chemical stability (hydrolytic); format: physicochemical; conditions: PBS with 50% acetonitrile, pH 7.4; % remaining after 48 hours at room temperature
Procedure: The stability of compounds in 1×PBS, pH 7.4, and at room temperature, was determined. Stability was also assessed in the presence of 50% ACN. Compounds were diluted and time 0 hour aliquots were collected and transferred to acetonitrile (spiked with an internal standard). The remainder of the volume was incubated for 48 hours, with additional aliquots collected at different time points (6 total). The amount of compound was determined by LC/MS/MS. The parent compound remaining was calculated by the following formula: % parent compound remaining=[(concentration at x hour/concentration at 0 hour)×100]. Results are the mean of each reaction triplicate, normalized to the internal standard, and expressed as a percent compound remaining after 48 hours.

[2] = Plasma protein binding (RED), mouse; format: in vitro ADME
Procedure: TEFLON Base Plate wells were rinsed with 20% ethanol for 10 minutes. Ethanol was then removed and wells were rinsed with ultrapure water and allowed to dry. RED (rapid equilibrium dialysis) inserts from Thermo Scientific (Pierce) were placed (open end up) into the wells of the base plate. All liquid was dispensed and transfer steps were performed with the FREEDOM EVO automated liquid handler (Tecan US). The sample chambers (red ring) contained 300 μl of a mixture of plasma and compound, and the buffer chambers received 500 μl of dialysis buffer (1×PBS, pH7.4). Duplicate inserts were made for each concentration tested. The base plate was covered with sealing tape and incubated at 37° C. on an orbital shaker at 350 rpm for 4 hours. After the incubation time, equal volumes from both chambers were removed and transferred to a 96 well plate containing either plasma or buffer. […] The amount of compound in the supernatant was determined by LC/MS/MS (Applied Biosystems, Sciex API4000 Q-Trap). The percent of free and bound compounds were calculated with the following formula: % of bound parent compound=[(amount of compound in donor-receiver/amount of compound in donor)×100]. Results reported are the mean of each reaction duplicate, normalized to the internal standard, and expressed as a percent compound bound after the incubation time. […]

T1 sequence (Q9WMX2 1192-1657): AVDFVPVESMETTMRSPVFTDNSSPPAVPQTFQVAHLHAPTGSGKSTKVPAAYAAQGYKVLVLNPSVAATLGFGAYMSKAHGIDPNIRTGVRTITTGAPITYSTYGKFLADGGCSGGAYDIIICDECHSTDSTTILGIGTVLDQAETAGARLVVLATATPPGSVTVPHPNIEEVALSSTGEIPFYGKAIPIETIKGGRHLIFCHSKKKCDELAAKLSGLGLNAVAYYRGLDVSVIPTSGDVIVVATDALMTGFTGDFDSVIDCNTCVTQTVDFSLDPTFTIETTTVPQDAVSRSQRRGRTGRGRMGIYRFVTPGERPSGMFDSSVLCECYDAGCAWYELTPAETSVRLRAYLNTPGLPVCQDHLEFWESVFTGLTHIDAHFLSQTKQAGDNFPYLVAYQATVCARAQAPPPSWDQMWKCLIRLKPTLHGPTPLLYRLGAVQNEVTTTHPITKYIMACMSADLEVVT

Compound: Cc1ccc2nc(-c3ccc4nc(-c5ccc6nc(-c7ccc(N)cc7)sc6c5)sc4c3)sc2c1S(=O)(=O)O [Compound P3, 2″-(4-aminophenyl)-6-methyl-[2,6′:2′,6″-terbenzo[d]thiazole]-7-sulfonic acid]
- IC50 (NS3h_1b(con1)): 15 ± 4 µM

Compound: Cc1ccc2nc(-c3ccc4nc(-c5ccc6nc(-c7ccc8nc(-c9ccc(N)cc9)sc8c7)sc6c5)sc4c3)sc2c1S(=O)(=O)O [Compound P4, 2′″-(4-aminophenyl)-6-methyl-[2,6′:2″,6′″-quaterbenzo[d]thiazole]-7-sulfonic acid]
- IC50 (NS3h_1b(con1)): 5 ± 3 µM
- effect on NS3 ATP hydrolysis (NS3h_1b(con1); presence and absence of RNA): inhibited ATP hydrolysis both in the presence and absence of RNA

Compound: Cc1ccc2nc(-c3ccc4nc(-c5ccc(N)cc5)sc4c3)sc2c1S(=O)(=O)O [Compound P2a, 2′-(4-aminophenyl)-6-methyl-[2,6′-bibenzo[d]thiazole]-7-sulfonic acid]
- inhibition at 100 µM (scNS4A-NS3; read-out: inhibition of protease): ≤ 50%

Compound: Cc1ccc2nc(-c3ccc4nc(-c5ccc(NC(=O)c6cccc(Cl)c6)cc5)sc4c3)sc2c1S(=O)(=O)O [Compound 17, 2′-(4-(3-chlorobenzamido)phenyl)-6-methyl-[2,6′-bibenzo[d]thiazole]-7-sulfonic acid]
- times less potent protease inhibitor than compound P4 (scNS4A-NS3; versus P4): 50 times
- Aqueous Stability [1]: 100%
- fraction unbound at 4 h, 1 μM ([2]; pH 7.4, 1 μM, read-out: Plasma Protein Binding (% Bound) Mouse (converted)): 0.02
- fraction unbound at 4 h, 10 μM ([2]; pH 7.4, 10 μM, read-out: Plasma Protein Binding (% Bound) Mouse): 0.01
